# Test results published in paper PMC4006730, “Trans-spliced Heat Shock Protein 90 Modulates Encystation in Giardia lamblia” (PLoS Neglected Tropical Diseases, 2014).
# Columns and labels:
# Format in all cases: binding
# [1] = biological target: T1, GlHsp90 (trans-spliced full-length heat shock protein 90) (Giardia duodenalis, UniProt A0A644F9H9); assay: intrinsic fluorescence quenching; also inhibits the purified ATPase (EC50 […])
# T1 construct: gene GL50803_0098054; full length Hsp90, N terminus 6x His-tag (Methods text says purified HspN)
# [2] = biological target: T1, GlHsp90 (trans-spliced full-length heat shock protein 90); assay: intrinsic tryptophan fluorescence quenching (ex […] nm, em […] nm), single-site fit
# [3] = biological target: T1, GlHsp90 (trans-spliced full-length heat shock protein 90); assay: intrinsic fluorescence quenching; also ATPase by TLC with radiolabelled ATP (Km […])
# T1 sequence (A0A644F9H9 entry or part of it): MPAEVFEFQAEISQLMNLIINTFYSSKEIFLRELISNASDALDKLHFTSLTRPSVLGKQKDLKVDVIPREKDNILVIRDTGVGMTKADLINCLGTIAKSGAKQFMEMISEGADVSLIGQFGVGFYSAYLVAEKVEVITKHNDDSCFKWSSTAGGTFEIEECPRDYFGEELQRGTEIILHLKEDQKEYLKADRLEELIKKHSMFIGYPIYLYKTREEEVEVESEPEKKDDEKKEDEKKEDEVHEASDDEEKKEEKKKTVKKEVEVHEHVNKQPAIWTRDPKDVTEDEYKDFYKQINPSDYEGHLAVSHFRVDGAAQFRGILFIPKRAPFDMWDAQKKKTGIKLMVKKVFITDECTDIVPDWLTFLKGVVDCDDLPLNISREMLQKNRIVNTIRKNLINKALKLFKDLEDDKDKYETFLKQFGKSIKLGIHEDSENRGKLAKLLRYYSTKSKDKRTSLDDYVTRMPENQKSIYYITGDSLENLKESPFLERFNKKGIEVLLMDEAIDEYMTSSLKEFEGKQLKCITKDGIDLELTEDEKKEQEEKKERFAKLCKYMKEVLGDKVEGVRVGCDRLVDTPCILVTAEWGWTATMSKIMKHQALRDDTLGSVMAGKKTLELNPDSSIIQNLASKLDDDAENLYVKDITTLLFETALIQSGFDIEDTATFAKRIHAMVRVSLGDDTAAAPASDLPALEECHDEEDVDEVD
smiles,measurement,setting,value
C=CCNC1=C2C[C@@H](C)C[C@H](OC)[C@H](O)[C@@H](C)/C=C(\C)[C@H](OC(N)=O)[C@@H](OC)/C=C\C=C(/C)C(=O)NC(=CC1=O)C2=O [17AAG],Kd,[1],17.1 µM
"COC1=C2C[C@@H](C)C[C@H](OC)[C@H](O)[C@@H](C)/C=C(\C)[C@H](OC(N)=O)[C@@H](OC)/C=C\C=C(/C)C(=O)NC(=CC1=O)C2=O [GA, Geldanamycin]",Kd,[2],1.5 µM
Nc1ncnc2c1ncn2[C@@H]1O[C@H](COP(=O)(O)OP(=O)(O)OP(=O)(O)O)[C@@H](O)[C@H]1O [ATP],Kd,[3],630 µM
